In patent publication US8394829B2, “Bi-functional quinoline analogs” (Gilead Sciences, Inc., priority 2010, dated 2013):

Key:
[1] = biological target: T1, human recombinant beta-2 adrenoreceptors (Homo sapiens, UniProt P07550); assay: Functional agonism of human recombinant beta-2 adrenoreceptors expressed in CHO cells (cAMP HTRF); type: cell-based; settings: CHO cells expressing human beta-2 adrenoreceptors, cAMP elevation, 30 min
T1 construct: expressed in transfected cells; host or cells: CHO cells
T1 sequence (P07550 whole entry): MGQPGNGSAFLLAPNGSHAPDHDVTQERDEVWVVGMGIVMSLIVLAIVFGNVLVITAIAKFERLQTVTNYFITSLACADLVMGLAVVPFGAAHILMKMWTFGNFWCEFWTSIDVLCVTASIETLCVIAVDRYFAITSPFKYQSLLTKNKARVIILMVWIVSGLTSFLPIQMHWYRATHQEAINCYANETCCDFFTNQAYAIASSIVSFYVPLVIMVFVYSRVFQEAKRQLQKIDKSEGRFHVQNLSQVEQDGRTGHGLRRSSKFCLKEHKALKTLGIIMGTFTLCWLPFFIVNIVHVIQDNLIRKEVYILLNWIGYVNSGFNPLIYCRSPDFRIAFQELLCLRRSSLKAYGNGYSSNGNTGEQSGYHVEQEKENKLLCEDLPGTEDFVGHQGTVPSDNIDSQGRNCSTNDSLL
In short: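 CHO cells expressing recombinant receptor incubated with compound for 30 min; intracellular cAMP rise over control read by HTRF. EC50 taken as concentration giving 50% of that compound's own maximal response, with full or partial agonism judged against isoproterenol maximum.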

[2] = biological target: T1, human recombinant beta-2 adrenoreceptors; assay: Beta-2 adrenoceptor binding assay ([3H](−)CGP-12177 displacement); settings: CHO cells expressing human beta-2 adrenoreceptors, [3H](−)CGP-12177 0.3 nM, 120 min
In short: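 Displacement of [3H](−)CGP-12177 (0.3 nM) from human recombinant beta-2 receptors expressed in CHO cells, measured after 120 min incubation with test compound. Bound radioligand counted by scintillation; IC50 taken from concentration-response curves as 50% of each compound's maximal inhibition.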

[3] = tested on: LPS-induced neutrophil recruitment into the lungs; assay: Inhibition of LPS-induced neutrophil recruitment into the lungs of Lewis rats; type: in vivo; settings: intra-tracheal dose of 300 μg/kg, 2 h before LPS aerosol, BAL 4 h post-LPS
Description: Inhibition of Lipoploysaccharide (LPS)-Induced Neutrophil Recruitment into the Lungs of Lewis Rats
Rats were anesthetized with 4% isoflurane, placed in the supine position at an angle of 30°, the mouth opened and the trachea exposed. A 22-gauge needle with a syringe attached was introduced into the trachea and test compound in suspension (200 μl volume per 400 g) was delivered into the lungs from approximately one centimeter above the carina. The rats were allowed to recover and two hrs later conscious animals were placed into a chamber and exposed to aerosolized LPS (1.0 mg/mL) at a rate of 3.0 L/min for 20 min. Rats were euthanized 4 h post-LPS exposure by an overdose of pentobarbital (90 mg/kg) by intra-peritoneal injection. […] The supernatant was discarded, the cells were re-suspended in PBS and total cell counts were determined based on a 10 μl sample of re-suspended cells stained with trypan blue and counts performed using a Countess® cell counter (Invitrogen). […] Manual eye counting was performed to determine the percentage number of cells in the cytospun sample (determined as macrophages, neutrophils, eosinophils, T-lymphocytes and eosinophils) and these values were used to determine the total number of each cell type per sample. Typically experiments contained a minimum of six rats per experimental group and the mean±SEM number of neutrophils was determined for each group. […]

Human recombinant PDE4B2 = biological target: T2, Human recombinant PDE4B2 (Homo sapiens, UniProt Q07343); assay: Inhibition of PDE4B4 enzyme activity (PDE Glo Assay); type: biochemical; settings: human recombinant PDE4B2, 50 nM cAMP; read-out: PDE4 IC50
T2 construct: purchased BPS Bioscience
T2 sequence (Q07343 1-564 isoform Q07343-2): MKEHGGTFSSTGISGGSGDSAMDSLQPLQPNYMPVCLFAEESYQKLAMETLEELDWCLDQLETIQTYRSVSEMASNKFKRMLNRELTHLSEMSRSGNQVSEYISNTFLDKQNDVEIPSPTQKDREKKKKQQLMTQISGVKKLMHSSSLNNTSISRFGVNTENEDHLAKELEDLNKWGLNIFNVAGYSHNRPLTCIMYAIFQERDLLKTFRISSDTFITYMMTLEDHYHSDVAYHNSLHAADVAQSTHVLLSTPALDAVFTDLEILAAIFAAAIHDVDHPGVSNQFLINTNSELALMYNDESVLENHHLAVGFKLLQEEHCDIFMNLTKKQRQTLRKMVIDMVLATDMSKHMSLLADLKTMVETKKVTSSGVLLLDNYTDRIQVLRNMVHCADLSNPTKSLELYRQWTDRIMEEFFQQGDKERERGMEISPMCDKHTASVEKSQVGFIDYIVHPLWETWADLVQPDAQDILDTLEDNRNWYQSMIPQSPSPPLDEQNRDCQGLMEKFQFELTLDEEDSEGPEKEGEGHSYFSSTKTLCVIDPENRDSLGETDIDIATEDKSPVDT
In short: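 Human recombinant PDE4B2 (0.12 nM) was pre-incubated with compound for 10 min at rt, then 50 nM cAMP was added for 1 hr. After IBMX stop and PKA detection, read-out was Kinase-Glo luminescence. IC50 came from a single-site nonlinear fit of RLU versus concentration.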

[4] = tested on: LPS-induced TNF-α release from human peripheral blood mononuclear cells (PBMC); assay: Inhibition of LPS-induced TNF-α release from human PBMC; type: cell-based; settings: LPS 0.4 ng/mL, 6 h, presence or absence of ICI-118551 not given
In short: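 Ficoll-purified primary PBMC, 100,000 cells/well, pre-incubated 30 min ± 10 μM ICI-118551 (± gives PDE4-only vs PDE4 plus beta-2 activity), then compound 1 h at 37 °C (0.1% DMSO). Stimulated with 0.4 ng/mL LPS for 6 h; supernatant TNF-α by bead cytokine assay; IC50 from single-site fit.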

Q: For `COc1cccc(Nc2c(C(N)=O)cnc3c(C)cc(S(=O)(=O)c4cccc(C(=O)Nc5ccc(CCCCCNC[C@H](O)c6ccc(O)c(CO)c6)cc5)c4)cc23)c1` [Example 26, (R)-6-[[3-[[4-[5-[[2-Hydroxy-2-[4-hydroxy-3-(hydroxymethyl)phenyl]ethyl]amino]pentyl]phenyl]carbamoyl]phenyl]sulfonyl]-4-[(3-methoxyphenyl)amino]-8-methylquinoline-3-carboxamide 2,2,2-trifluoroacetate], which EC50 [1] is on record?
A: > 300 nM

Q: What about the IC50 [2] of the same compound?
A: > 300 nM

Q: And the neutrophil inhibition [3]?
A: ≤ 40%

Q: What about the IC50 (Human recombinant PDE4B2) of the same compound?
A: < 100 nM

Q: And the EC50 [4]?
A: < 100 nM
